# Source: patent US20240425491A1, “HETEROARYL COMPOUNDS USEFUL IN THE TREATMENT OF COGNITIVE DISORDERS” (University College Cardiff Consultants Limited, priority 2021, published 2024)
# Key:
# [1] = biological target: T1, human recombinant GABAAR containing α5β3γ2 subunits (benzodiazepine site) (Homo sapiens, UniProt P18507+P31644); assay: In vitro radioligand binding assay (α5-GABAAR Ki); settings: inhibition of [3H]Ro15-1788 binding, membranes of L(tk−) cells expressing human α5β3γ2; read-out: α5-GABAAR Ki
# T1 construct: expressed in transfected cells; host or cells: mouse L(tk−) cells, dexamethasone-inducible vector pMSGneo
# Summary of the method: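 Membranes from mouse L(tk^−) cells stably expressing human α5β3γ2 GABAAR incubated 1 h at 4° C with 4 nM [^3H]Ro15-1788 and test compound; nonspecific binding with 1 μM TP003. Filter-bound radioactivity counted; Ki from IC50 by Cheng-Prusoff using measured Kd.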
# [2] = biological target: T2, human α5β3γ2 GABAARs in mouse L(tk−) cells (Homo sapiens, UniProt P18507+P31644); assay: In vitro electrophysiological recording assay (α5-GABAAR relative efficacy), QPatch; type: cell-based; settings: Conc 1 μM; GABA EC10-20
# T2 construct: expressed in transfected cells; host or cells: mouse L(tk−) cells, dexamethasone-inducible vector pMSGneo
# Summary of the method: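 Whole-cell QPatch recordings at 20-22° C, −65 mV holding, in dexamethasone-induced (1 μM, 24 h) L(tk−) cells. Compound pre-applied ≥1 min, then co-applied with GABA EC10-20; percentage change in leak-corrected peak current, taken at ≥100× Ki, normalised to DMCM efficacy; 0.1% DMSO final.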
# [3] = biological target: T3, human α5β3γ2L GABAA receptors in HEK293 cells (Homo sapiens, UniProt P18507+P31644); assay: In vitro electrophysiological recording assay (α5-GABAAR relative efficacy), SyncroPatch; type: cell-based; settings: GABA EC10-20
# T3 construct: expressed in transfected cells
# From the text: Mouse L(tk^−) cells stably expressing human α1β3γ2, α2β3γ2, α3β3γ2, α5β3γ2 GABAARs generated by transfection of the individual subunits in the dexamethasone-inducible expression vector pMSGneo in mouse L(tk^−) cells (Hadingham et al., 1993, Mol. Pharmacol. 43:970-975 and 1993, Mol. Pharmacol. 44:1211-1218) were used for binding and functional assays. For certain compounds, HEK293 cells stable expressing the human α1β3γ2L, α2β3γ2L, α3β3γ2L and α5β3γ2L GABAA receptors were used to evaluate their functional effects in a SyncroPatch electrophysiology assay.
# The efficacy of modulators was evaluated using either the automated patch-clamp platform QPatch16 (Sophion, Copenhagen, Denmark) or the SyncroPatch 384i (Nanion Technologies, Germany). Cells were harvested from flasks by enzymatic dissociation and re-suspended in serum-free medium.
# For the Syncropatch recordings, a stacked addition protocol was used, in which GABA was rapidly applied and then washed off from the cell. All experiments were carried out at room temperature (20-22° C.) using a standard whole cell procedure. The currents recorded were acquired at 2 kHz and filtered using a Bessel filter. Whole-cell currents were measured at a holding potential of −80 mV.
# For Syncropatch recordings, the extracellular recording solution contained: 140 mM NaCl, 4 mM KCl, 2 mM CaCl2), 1 mM MgCl2, 10 mM HEPES, 5 mM glucose (pH 7.4 and osmolarity of c. 300-310 mOsm/L). The intracellular recording solution contained: 90 mM KCl, 50 mM KF, 1.5 mM MgCl2, 11.1 mM EGTA and 10 mM HEPES (pH 7.2 and osmolarity of c. 300 mOsm/L). 2 mM of NaATP was added to the intracellular solution on the day of testing.
# The effects of modulators were evaluated in the presence of a submaximal GABA concentration, giving typically 10-20% activation (GABA EC10-20) of the response elicited by a saturating GABA concentration. For QPatch recordings, to check and ensure baseline current stability before compound addition, five consecutive applications of GABA EC10-20 alone (each application with a 2 s duration, separated by minimum 1 min wash off periods) were performed before compound addition. The test compound was applied using the pipetting system of the QPatch system 1 min at least prior to co-application with GABA EC10-20. For SyncroPatch recordings, GABA EC20 alone was applied three times (1 s long applications, with wash steps in-between) before compound addition. This was followed by a 1-2 min pre-incubation with the test compound and then re-application of GABA EC10-20 in the presence of the compound. Finally, following a further wash step, a saturating concentration of GABA was applied, allowing the accurate evaluation for each cell of the percentage baseline activation elicited by the submaximal GABA applied.
# The compounds were first dissolved in DMSO as a 10 mM stock and then further diluted to the testing concentrations so that the final DMSO concentration in the extracellular recording solution was kept constant at 0.1% for the QPatch recordings, or 0.2% for the SyncroPatch recordings.
# The % efficacy of modulators was determined from the GABA elicited currents recorded in the presence and absence of the test compound, using the formula:
# [((compound peak current−leak)−(GABA peak current−leak))/(GABA peak current−leak)]*100,
# where ‘leak’ is the leak baseline current at −65 mV, ‘compound peak current’ is the current elicited by co-application of compound and GABA, and ‘GABA peak current’ is the current elicited by GABA alone during the 5th GABA application. The results were presented as ‘relative efficacy’ for each compound generally at a concentration equal or higher than 100 times their determined Ki. The relative efficacy of a compound was calculated by normalising its efficacy to the efficacy of methyl-6,7-dimethoxy-4-ethyl-beta-carboline-3-carboxylate (DMCM) that was separately determined produced an attenuation of GABA-induced currents of −57±4%, n=5.
# T1 sequence (P31644 32-462): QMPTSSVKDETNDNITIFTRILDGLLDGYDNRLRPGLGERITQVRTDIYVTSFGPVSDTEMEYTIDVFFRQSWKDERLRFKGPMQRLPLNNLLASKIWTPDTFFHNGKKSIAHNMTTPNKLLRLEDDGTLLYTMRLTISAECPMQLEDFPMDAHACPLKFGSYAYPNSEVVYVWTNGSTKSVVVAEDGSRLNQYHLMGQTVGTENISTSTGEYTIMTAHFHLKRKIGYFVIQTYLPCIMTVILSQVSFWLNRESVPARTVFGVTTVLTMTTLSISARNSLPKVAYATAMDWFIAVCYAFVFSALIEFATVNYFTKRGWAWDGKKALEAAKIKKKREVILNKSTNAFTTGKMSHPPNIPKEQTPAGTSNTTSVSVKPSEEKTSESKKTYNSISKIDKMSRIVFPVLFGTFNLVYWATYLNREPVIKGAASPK
# T1 sequence (P28472 26-473 partner): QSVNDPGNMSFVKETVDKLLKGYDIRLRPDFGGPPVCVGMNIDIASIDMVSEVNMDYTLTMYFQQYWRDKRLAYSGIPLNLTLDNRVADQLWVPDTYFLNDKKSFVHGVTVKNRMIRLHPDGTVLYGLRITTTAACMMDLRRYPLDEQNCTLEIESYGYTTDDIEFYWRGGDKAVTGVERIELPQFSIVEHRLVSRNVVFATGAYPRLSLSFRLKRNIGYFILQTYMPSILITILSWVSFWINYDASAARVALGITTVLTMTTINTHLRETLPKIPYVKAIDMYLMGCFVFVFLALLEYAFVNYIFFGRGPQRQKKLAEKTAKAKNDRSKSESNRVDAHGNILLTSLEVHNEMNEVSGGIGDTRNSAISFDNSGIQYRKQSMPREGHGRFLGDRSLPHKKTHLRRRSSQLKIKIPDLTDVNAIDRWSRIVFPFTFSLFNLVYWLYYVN
# T1 sequence (P18507 40-475): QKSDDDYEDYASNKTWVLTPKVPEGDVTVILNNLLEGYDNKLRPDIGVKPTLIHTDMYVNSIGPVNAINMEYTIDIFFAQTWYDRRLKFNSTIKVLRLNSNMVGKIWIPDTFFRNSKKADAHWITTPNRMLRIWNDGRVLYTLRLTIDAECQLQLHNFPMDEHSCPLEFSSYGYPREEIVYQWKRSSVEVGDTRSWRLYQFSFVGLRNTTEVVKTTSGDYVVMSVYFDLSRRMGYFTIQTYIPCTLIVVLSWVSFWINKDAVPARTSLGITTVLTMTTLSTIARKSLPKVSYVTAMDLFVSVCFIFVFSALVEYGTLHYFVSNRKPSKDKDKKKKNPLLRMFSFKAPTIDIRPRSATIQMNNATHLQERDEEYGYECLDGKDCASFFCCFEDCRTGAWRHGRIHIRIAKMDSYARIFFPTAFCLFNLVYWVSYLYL
# T3 sequence (P31644 32-462): as the sequence (P31644 32-462) above
# T3 sequence (P28472 26-473 partner): as the sequence (P28472 26-473 partner) above
# T3 sequence (P18507 40-475): as the sequence (P18507 40-475) above
# T2 sequence (P31644 32-462): as the sequence (P31644 32-462) above
# T2 sequence (P28472 26-473 partner): as the sequence (P28472 26-473 partner) above
# T2 sequence (P18507 40-475): as the sequence (P18507 40-475) above
Structure (SMILES),Ki [1],"α5-GABAAR Relative Efficacy (to DMCM), Qpatch [2]","α5-GABAAR Relative Efficacy (to DMCM), SyncroPatch ([3]; Conc 0.1 μM)","α5-GABAAR Relative Efficacy (to DMCM), SyncroPatch ([3]; Conc 0.03 μM)"
"COc1nc(-c2cnn(C)c2)ccc1NC(=O)c1c(-c2ccccc2)noc1C [Example 4, N-[2-Methoxy-6-(1-methylpyrazol-4-yl)-3-pyridyl]-5-methyl-3-phenyl-isoxazole-4-carboxamide]",29.7 nM,−0.68,−0.36,
"COc1nc(-c2cnc(CN3CCOCC3)nc2)ccc1NC(=O)c1c(-c2ccccc2)noc1C [Example 181, N-[2-Methoxy-6-[2-(morpholinomethyl)pyrimidin-5-yl]-3-pyridyl]-5-methyl-3-phenyl-isoxazole-4-carboxamide]",1.9 nM,,−1.05,
"Cc1onc(-c2ccc(F)cc2)c1C(=O)Nc1ccc(-c2cnc3n2CCN(C)C3)nc1OC(C)C.Cl [Example 209, 3-(4-Fluorophenyl)-N-(2-isopropoxy-6-(7-methyl-5,6,7,8-tetrahydroimidazo[1,2-a]pyrazin-3-yl)pyridin-3-yl)-5-methylisoxazole-4-carboxamide hydrochloride]",0.3 nM,,−0.60,
"COc1nc(-c2cnc(N)nc2)ccc1NC(=O)c1c(-c2ccc(F)cc2)noc1C [Example 213, N-[6-(2-Aminopyrimidin-5-yl)-2-methoxy-3-pyridyl]-3-(4-fluorophenyl)-5-methyl-isoxazole-4-carboxamide]",0.4 nM,,−0.85,
"Cc1onc(-c2ccccc2)c1C(=O)Nc1ccc(-c2cnc(N)nc2)nc1OC(C)C [Example 214, N-[6-(2-Aminopyrimidin-5-yl)-2-isopropoxy-3-pyridyl]-5-methyl-3-phenyl-isoxazole-4-carboxamide]",0.4 nM,,−0.81,
"Cc1onc(-c2ccccc2)c1C(=O)Nc1ccc(-c2ccc(N)nc2)nc1OC(C)C [Example 215, N-[6-(6-Amino-3-pyridyl)-2-isopropoxy-3-pyridyl]-5-methyl-3-phenyl-isoxazole-4-carboxamide]",0.6 nM,,−0.65,
"Cc1onc(-c2ccc(F)cc2)c1C(=O)Nc1ccc(-c2cnc(N)nc2)nc1OC1COC1 [Example 216, N-[6-(2-Aminopyrimidin-5-yl)-2-(oxetan-3-yloxy)-3-pyridyl]-3-(4-fluorophenyl)-5-methyl-isoxazole-4-carboxamide]",1.5 nM,,−0.67,
"COCCOc1nc(-c2cnc(N)nc2)ccc1NC(=O)c1c(-c2ccc(F)cc2)noc1C [Example 217, N-[6-(2-Aminopyrimidin-5-yl)-2-(2-methoxyethoxy)-3-pyridyl]-3-(4-fluorophenyl)-5-methyl-isoxazole-4-carboxamide]",6.4 nM,,−0.16,
"Cc1onc(-c2ccc(F)cc2)c1C(=O)Nc1ccc(-c2cnc(N)nc2)nc1OCCO [Example 218, N-[6-(2-Aminopyrimidin-5-yl)-2-(2-hydroxyethoxy)-3-pyridyl]-3-(4-fluorophenyl)-5-methyl-isoxazole-4-carboxamide]",19.5 nM,,−0.51,
"COc1nc(-c2ccc(CO)cc2)ccc1NC(=O)c1c(-c2ccccc2)noc1C [Example 219, N-[6-[4-(hydroxymethyl)phenyl]-2-methoxy-3-pyridyl]-5-methyl-3-phenyl-isoxazole-4-carboxamide]",4.4 nM,,,−0.45
"COc1nc(-c2cnoc2)ccc1NC(=O)c1c(-c2ccc(F)cc2)noc1C [Example 221, 3-(4-fluorophenyl)-N-(6-(isoxazol-4-yl)-2-methoxypyridin-3-yl)-5-methylisoxazole-4-carboxamide]",0.8 nM,,−1.15,
"COc1nc(-c2ccc(N)nc2)ccc1NC(=O)c1c(-c2ccc(F)cc2)noc1C [Example 222, N-(6′-amino-6-methoxy-[2,3′-bipyridin]-5-yl)-3-(4-fluorophenyl)-5-methylisoxazole-4-carboxamide]",0.5 nM,,−0.78,
"COc1nc(-c2cnc(N)nc2)ncc1NC(=O)c1c(-c2ccccc2)noc1C [Example 223, N-(2′-amino-4-methoxy-[2,5′-bipyrimidin]-5-yl)-5-methyl-3-phenylisoxazole-4-carboxamide]",1.3 nM,,−1.06,
"COc1nc(-c2ccc(CN3CC4COCC(C4)C3)cc2)ccc1NC(=O)c1c(-c2ccccc2)noc1C [Example 228, N-[2-methoxy-6-[4-(3-oxa-7-azabicyclo[3.3.1]nonan-7-ylmethyl)phenyl]-3-pyridyl]-5-methyl-3-phenyl-isoxazole-4-carboxamide]",1.3 nM,,−0.68,
"COc1nc(-c2cnoc2)ncc1NC(=O)c1c(-c2ccccc2)noc1C [Example 229, N-(2-isoxazol-4-yl-4-methoxy-pyrimidin-5-yl)-5-methyl-3-phenyl-isoxazole-4-carboxamide]",87.4 nM,,−0.79,
"COc1nc(-c2ccc(CN3CCOCC3)nc2)ccc1NC(=O)c1c(-c2ccccc2)noc1C [Example 230, N-(6-methoxy-6′-(morpholinomethyl)-[2,3′-bipyridin]-5-yl)-5-methyl-3-phenyl-isoxazole-4-carboxamide]",1.4 nM,,−1.10,
"COc1nc(-c2ccc(CN3CC4(COC4)C3)nc2)ccc1NC(=O)c1c(-c2ccccc2)noc1C [Example 231, N-(6′-((2-oxa-6-azaspiro[3.3]heptan-6-yl)methyl)-6-methoxy-[2,3′-bipyridin]-5-yl)-5-methyl-3-phenylisoxazole-4-carboxamide]",1.3 nM,,−1.00,
"COc1nc(-c2ccc(CN3CC4COCC(C4)C3)nc2)ccc1NC(=O)c1c(-c2ccccc2)noc1C [Example 232, N-(6′-((3-oxa-7-azabicyclo[3.3.1]nonan-7-yl)methyl)-6-methoxy-[2,3′-bipyridin]-5-yl)-5-methyl-3-phenylisoxazole-4-carboxamide]",0.6 nM,,−0.73,
